Source: ChEMBL document CHEMBL3885861, “Open TG-GATES”

Species on record: Rattus norvegicus
Experiment: Open TG-GATES - Regimen: Daily Repeat
Format: toxicity, organism-based, Sprague-Dawley
Parameters: regimen Daily Repeat, gender Male, age 6 weeks
Conditions: in vivo, po, 0 mg/kg, route gavage, dose level Control; for APTT / Bas / Eos / Fbg / Hb / Ht / Lym / MCH / MCHC / MCV / Mono / Neu / PT / Plat / RBC / Ret / WBC: tissue Blood
[1] = 72 h, tissue Kidney, time 3 day
[2] = 72 h, tissue Plasma, time 3 day

SMILES: O=C(O)c1ccccc1Nc1ccccc1 [FENAMIC ACID]
- TERMINAL_BW (72 h, time 3 day): 237 g
- APTT (72 h, time 3 day): 16.2 s
- Bas (72 h, time 3 day): 0.4%
- Eos (72 h, time 3 day): 1.2%
- Fbg (72 h, time 3 day): 270.2 mg/dL
- Hb (72 h, time 3 day): 13.9 g/dL
- Ht (72 h, time 3 day): 41.7%
- Lym (72 h, time 3 day): 75.2%
- MCH (72 h, time 3 day): 20.9 pg
- MCHC (72 h, time 3 day): 33.3%
- MCV (72 h, time 3 day): 62.7 fL
- Mono (72 h, time 3 day): 2.6%
- Neu (72 h, time 3 day): 20.6%
- PT (72 h, time 3 day): 14.3 s
- Plat (72 h, time 3 day): 121.2 x10_4/uL
- RBC (72 h, time 3 day): 664.6 x10_4/ul
- Ret (72 h, time 3 day): 6.5%
- WBC (72 h, time 3 day): 95.3 x10_2/uL
- KIDNEY_L [1]: 1 g
- KIDNEY_R [1]: 1 g
- KIDNEY_TOTAL [1]: 2 g
- LIVER (72 h, tissue Liver, time 3 day): 10.9 g
- A/G [2]: 0.9
- ALP [2]: 1663.4 IU/L
- ALT [2]: 35.4 IU/L
- AST [2]: 63.4 IU/L
- BUN [2]: 13.2 mg/dL
- CRE [2]: 0.2 mg/dL
- Ca [2]: 11.6 mg/dL
- Cl [2]: 106.8 meq/L
- DBIL [2]: 0.01 mg/dL
- GLC [2]: 185.8 mg/dL
- IP [2]: 7.2 mg/dL
- K [2]: 4.3 meq/L
- LDH [2]: 97.8 IU/L
- Na [2]: 143.8 meq/L
- PL [2]: 147.4 mg/dL
- RALB [2]: 2.7 g/dL
- TBIL [2]: 0.044 mg/dL
- TC [2]: 73.4 mg/dL
- TG [2]: 91.8 mg/dL
- TP [2]: 5.7 g/dL
- gamma-GTP [2]: 1.6 IU/L
- TERMINAL_BW ([…], time 7 day): 271.7 g
- TERMINAL_BW ([…], time 14 day): 334.6 g
- TERMINAL_BW ([…], time 28 day): 425.8 g
- APTT ([…], time 7 day): 16.2 s
- Bas ([…], time 7 day): 0.8%
- Eos ([…], time 7 day): 1%
- Fbg ([…], time 7 day): 278.2 mg/dL
- Hb ([…], time 7 day): 13.5 g/dL
- Ht ([…], time 7 day): 40.3%
- Lym ([…], time 7 day): 80.2%
- MCH ([…], time 7 day): 20.5 pg
- MCHC ([…], time 7 day): 33.5%
- MCV ([…], time 7 day): 61 fL
- Mono ([…], time 7 day): 2.2%
- Neu ([…], time 7 day): 15.6%
- PT ([…], time 7 day): 13.8 s
- Plat ([…], time 7 day): 118.4 x10_4/uL
- RBC ([…], time 7 day): 661.2 x10_4/ul
- Ret ([…], time 7 day): 5.4%
- WBC ([…], time 7 day): 84.5 x10_2/uL
- APTT ([…], time 14 day): 16.3 s
- Bas ([…], time 14 day): 0.4%
- Eos ([…], time 14 day): 1%
- Fbg ([…], time 14 day): 296.2 mg/dL
- Hb ([…], time 14 day): 14.5 g/dL
- Ht ([…], time 14 day): 42.3%
- Lym ([…], time 14 day): 82.6%
- MCH ([…], time 14 day): 20.2 pg
- MCHC ([…], time 14 day): 34.2%
- MCV ([…], time 14 day): 59.2 fL
- Mono ([…], time 14 day): 1.8%
- Neu ([…], time 14 day): 14.2%
- PT ([…], time 14 day): 14.1 s
- Plat ([…], time 14 day): 112.2 x10_4/uL
- RBC ([…], time 14 day): 714.8 x10_4/ul
- Ret ([…], time 14 day): 4%
- WBC ([…], time 14 day): 73.8 x10_2/uL
- APTT ([…], time 28 day): 15.8 s
- Bas ([…], time 28 day): 0.2%
- Eos ([…], time 28 day): 1%
